Data as given in the PolyMetriX glass transition set.
± gives the standard deviation of the reports.

Row | SMILES | glass transition temperature
1 | *C(=O)Nc1ccc(S(=O)(=O)c2ccc(NC(=O)c3ccc4[nH]c(-c5cc(-c6nc7cc(*)ccc7[nH]6)cc(N6C(=O)c7ccccc7C6=O)c5)nc4c3)cc2)cc1 (repeat unit) | 325.00 °C
2 | *C(=O)c1ccc2nc(-c3ccc(-c4nc5ccc(*)cc5nc4-c4ccccc4)cc3)c(-c3ccccc3)nc2c1 (repeat unit) | 325.00 °C
3 | *CC(*)(C)C(=O)OCCN(CC)c1ccc(/N=N/c2nc3ccc([N+](=O)[O-])cc3s2)cc1 (repeat unit) | 140.00 °C
4 | *CC(*)c1ccc(I)cc1 (repeat unit) | 158.00 °C
5 | *c1ccc(Oc2ccc(N3C(=O)c4c(c(-c5ccccc5)c(-c5ccc(-c6c(-c7ccccc7)c7c(c(-c8ccccc8)c6-c6ccccc6)C(=O)N(*)C7=O)cc5)c(-c5ccccc5)c4-c4ccccc4)C3=O)cc2)cc1 (repeat unit) | 413.00 °C
6 | *Oc1ccc(CNC(=O)CCCCC(=O)NCc2ccc(OC3COC4C(*)COC34)cc2)cc1 (repeat unit) | 116.00 °C
7 | *CCCCCCc1nc2cc(NC(=O)CCCCCCC(=O)Nc3ccc4oc(*)nc4c3)ccc2o1 (repeat unit) | 77.00 °C
8 | *Oc1ccc(-c2ccc(Oc3ccc(C(=O)c4ccc(*)cc4)cc3)cc2)cc1 (repeat unit) | 167.00 °C
9 | */C=C/C(C)C(*)C(=O)OCCCN(C)c1ccc(N(C)C)cc1 (repeat unit) | 11.50 °C
10 | *Nc1ccc(Br)cc1-c1ccc(NC(=O)c2cccc(C(*)=O)c2)cc1 (repeat unit) | 253.00 °C
11 | *CC(*)C(=O)OCCCCOC(=O)c1ccc(OC(=O)c2ccc(C#N)cc2)cc1 (repeat unit) | 40.00 °C
12 | *Oc1ccc(*)cc1 (repeat unit) | 85.00 °C
13 | *CC(*)C(=O)OCCSC (repeat unit) | -60.00 °C
14 | *Sc1ccc(C(=O)CNCCCCCCCCNCC(=O)c2ccc(*)cc2)cc1 (repeat unit) | 231.00 °C
15 | *CCCCCCOC(=O)OCCCCCCCCCCCCOC(=O)OCCCCCCOc1ccc(C(=O)c2ccc(O*)cc2)cc1 (repeat unit) | -8.00 °C
16 | *c1ccc(Oc2ccc(C(=O)c3cccc(C(=O)c4ccc(Oc5ccc(-c6cc(*)n(-c7ccccc7)n6)cc5)cc4)c3)cc2)cc1 (repeat unit) | 190.00 °C
17 | *Oc1ccc2ccc(OC(=O)c3ccc(Oc4ccc(C(*)=O)cc4)cc3)cc2c1 (repeat unit) | 142.00 °C
18 | *Oc1ccc(C(CCC)(CCC)c2ccc(OC(*)=O)c(C)c2)cc1C (repeat unit) | 101.00 °C
19 | *OC(=O)OCCCCCCCCOC(=O)OC1COC2C(*)COC12 (repeat unit) | 19.50 °C
20 | *CCOCCOCCOc1ccc(C(=O)Nc2cc(NC(=O)c3ccc(O*)cc3)cc(-c3nc4ccccc4[nH]3)c2)cc1 (repeat unit) | 165.00 °C
21 | *C1C(=O)N(c2c(CC)cccc2CC)C(=O)C1* (repeat unit) | 288.00 °C
22 | *CC(O)COC(=O)CCCCCCCCC(=O)OCC(O)COc1ccc(C(=O)Oc2ccc(O*)cc2)cc1 (repeat unit) | 36.00 °C
23 | *CCCCCCN1C(=O)c2ccc(C(=O)Nc3ccc(S(=O)(=O)c4cccc(NC(=O)c5ccc6c(c5)C(=O)N(*)C6=O)c4)cc3)cc2C1=O (repeat unit) | 190.00 °C
24 | *CC(*)C1CCCC(C)C1 (repeat unit) | 141.00 °C

Row | SMILES | glass transition temperature
25 | *c1ccc(Oc2ccc(Oc3ccc(-c4ccc(Oc5ccc(Oc6ccc(C7(*)OC(=O)c8ccccc87)cc6)cc5)c5ccccc45)c4ccccc34)cc2)cc1 (repeat unit) | 198.00 °C
26 | *Oc1ccc(C2(c3ccc(Oc4ccc(C(=O)C(=O)c5ccc(*)cc5)cc4)cc3)c3ccccc3-c3ccccc32)cc1 (repeat unit) | 242.00 °C
27 | *c1ccc(C(=O)c2ccc(-n3nc(-c4ccccc4)c4cc(Oc5ccc6c(-c7ccccc7)nn(*)c(=O)c6c5)ccc4c3=O)cc2)cc1 (repeat unit) | 275.50 °C
28 | *c1ccc(Oc2ccc(-c3ccc(Oc4ccc(N5C(=O)c6ccc(Oc7c(C)cc(C(C)(C)c8cc(C)c(Oc9ccc%10c(c9)C(=O)N(*)C%10=O)c(C)c8)cc7C)cc6C5=O)cc4)cc3C)c(C)c2)cc1 (repeat unit) | 257.00 °C
29 | *CCCCC(=O)NNC(=O)c1ccc(C(=O)NNC(=O)CCCCOc2ccc(O*)c(C)c2)cc1 (repeat unit) | 150.00 °C
30 | *Oc1cc(C(C)(C)C)c(Oc2ccc(C(=O)Nc3ccc(C(C)(C)c4ccc(NC(=O)c5ccc(*)cc5)cc4)cc3)cc2)cc1C(C)(C)C (repeat unit) | 254.00 °C
31 | *Oc1cccc(C(=O)Nc2ccc(-c3ccc(NC(=O)c4cccc(Oc5nc(*)nc(Sc6ccccc6)n5)c4)cc3)cc2)c1 (repeat unit) | 279.00 °C
32 | *CCN(CCOC(=O)c1ccc(C(=O)O*)c(OCCC)c1)c1ccc(C=C(C#N)C#N)cc1 (repeat unit) | 94.00 °C
33 | *c1ccc(Oc2ccc(-c3ccc(Oc4ccc(N5C(=O)c6cccc(Oc7cc(C(C)(C)C)c(Oc8cccc9c8C(=O)N(*)C9=O)cc7C(C)(C)C)c6C5=O)cc4)cc3)cc2)cc1 (repeat unit) | 275.00 °C
34 | *Oc1ccc(NC(=O)c2ccc(C(=O)Nc3ccc(*)cc3)cc2)cc1 (repeat unit) | 240.50 °C
35 | *C(=O)c1cc2c(cc1Cl)C(=O)N(c1cc(Cl)c(N3C(=O)c4cc(*)c(Cl)cc4C3=O)cc1Cl)C2=O (repeat unit) | 367.00 °C
36 | *Oc1ccc(Oc2ccc(C(=O)Nc3ccc(Cc4ccc(NC(=O)c5ccc(*)cc5)cc4)cc3)cc2)cc1 (repeat unit) | 216.00 °C
37 | *CCSSCCO* (repeat unit) | -53.00 °C
38 | *Oc1ccc(C(=O)Nc2cc(NC(=O)c3ccc(*)cc3)cc(C(=O)OCCOC(=O)/C=C/c3ccc(N(C)C)cc3)c2)cc1 (repeat unit) | 182.00 °C
39 | *CC(*)c1cc(C)cc(C)c1 (repeat unit) | 112.00 °C
40 | *C(=O)Nc1ccc(C2(c3ccc(N4C(=O)c5ccc(*)cc5C4=O)cc3)CCC(CC)CC2)cc1 (repeat unit) | 312.00 °C
41 | *C(=O)c1ccc2c(c1)C(=O)N(c1ccc(Oc3c(C)cc(Cc4cc(C)c(Oc5ccc(N6C(=O)c7ccc(*)cc7C6=O)cc5)c(C)c4)cc3C)cc1)C2=O (repeat unit) | 303.00 °C
42 | *O[Si](*)(C)C (repeat unit) [Poly(dimethylsiloxane)] | -124 ± 2 °C
43 | *Oc1ccc(C(C)(C)c2ccc(Oc3ccc(C(=O)c4ccc(C(C)(C)c5ccc(C(=O)c6ccc(*)cc6)cc5)cc4)cc3)cc2)cc1 (repeat unit) | 171.00 °C
44 | *c1ccc(NC(=O)CCCCCCCC(=O)Nc2ccc(S(*)(=O)=O)cc2)cc1 (repeat unit) | 178.00 °C
45 | *CC(O)CN(*)c1ccccc1 (repeat unit) | 78.50 °C
46 | *CCCCCCOc1ccc(/C=C2\CC/C(=C\c3ccc(OCCCCCCOP(=O)(O*)OC)c(OC)c3)C2=O)cc1OC (repeat unit) | 74.00 °C
47 | *C(=O)c1ccc2c(c1)C(=O)N(c1cc(C(c3ccc(O)c(N4C(=O)c5ccc(*)cc5C4=O)c3)(C(F)(F)F)C(F)(F)F)ccc1O)C2=O (repeat unit) | 315.00 °C
